This passage reports melting point results from a melting point compilation (Tetko et al.; mined from patent text by program, amines drawn as free bases though some values may be those of a salt).

Broadly, the melting point is the temperature, or range, at which the solid turns liquid.

Turning to `C(=NNc1cc(N2CCOCC2)nc(OCCc2ccccn2)n1)c1c[nH]c2ccccc12`, the melting point lay in the range of 160 to 165 °C.
Then `Cc1cc2c(cc1C1=NNC(=O)CC1C)NC(=O)CO2` (centres undefined), with 163 to 166 °C.
On to `NS(=O)(=O)c1ccc(Br)c(Br)c1`, for which the melting point lay within 169 to 171 °C.
In turn, `CC1(C)CC(=O)Nc2ccc(-c3cc(F)cc(C#N)c3)cc21` showed a melting point of 249 to 250 °C.
On to `C=CC(=O)OCc1c(Br)c(Br)c(Br)c(COC(=O)C=C)c1Br`, for which the melting point lay in the range of 105 to 108 °C.
As for `C[C@]12CCC(=O)N[C@@H]1CCc1cc(Sc3cccc(Cl)c3)ccc12`, the melting point fell in the range of 186 to 187 °C.
`CC(C)(C)CCN1C(=O)C(N)C(=O)N(c2ccccc2F)c2ccccc21` (centres undefined): the melting point was in the range of 98 to 100 °C.
In turn, `O=C(O)c1nc(C2CC2)[nH]c(=O)c1Cl` displayed a melting point of 189 to 190 °C.
Then `O=C(O)CNC(=O)c1ccccc1NC(=O)c1ccccc1O`, with 222 to 224 °C; and `Cc1cc(SCc2ccc(OCc3ccccn3)cc2)ccc1OCC(=O)O`, with 150 °C.
In the case of `CCC1(CC)C(=O)N(C(C)C)CC(C)(C)N1OC(C)(C)C#N`, the melting point is 84 to 89 °C.
Then `Cc1nnc2n1-c1sc3c(c1C(c1ccccc1Cl)=NC2)CCN(C(=S)NCc1ccccc1C(F)(F)F)C3`, with 178 to 184 °C; and `O=[N+]([O-])N=c1ccccn1Cc1ccccc1`, with 125 to 126 °C.
Compound `COC(=O)c1c(C(=O)OC)c(-c2ccc(OC)c(OC)c2)c2c(O)c(OC)c(OC)cc2c1O` returned a melting point of 179 °C.
Turning to `CCOC(=O)C(=O)Nc1cccc2ccccc12`, the melting point lay in the range of 105 to 107 °C.
Compound `O=C1c2ccccc2C(=O)N1Cc1ccc(OCCCCc2ccccc2)cc1` came in with a melting point of 106 to 108 °C.
The compound `Cc1cccc2c(CCN3CCCCC3)c(-c3ccccc3)[nH]c12` had a melting point of 159 to 161 °C.
`O=C(O)CCCC(=O)NCCCCCC1CCSS1` (centres undefined) displayed a melting point of 60 to 62 °C.
With `Cc1cnn(Cc2ccc3c(c2)-c2[nH]nc(-c4ccsc4)c2C3)c1`, the melting point fell in the range of 262 to 263 °C.
As to `CC(=O)N1CCC(CCC(=O)c2ccc3c4c2CCCC4CN3C(C)=O)CC1` (centres undefined), the melting point is 130 to 132 °C.
As to `CCCC(=O)NS(=O)(=O)c1cccc(-c2cccc(-c3cc(-c4ccc(C(F)(F)F)cc4)cc(C)n3)n2)c1`, the melting point came out at 188 °C.
Compound `CC1(N2C(=O)c3cccc([N+](=O)[O-])c3C2=O)C=CC(OC(F)(F)C(F)C(F)(F)F)=CC1` (centres undefined) had a melting point of 121 °C.
The compound `C=CCc1c(O)c(C)cc2c1C(C)(C)CC1(CC(C)(C)c3c(cc(C)c(O)c3CC=C)O1)O2` came in with a melting point of 95 to 97 °C.
For `O=C(c1cnc(N2CCCC2)c(OCC2CCCC2)n1)N1CCCCC1`, the melting point lay in the range of 61 to 62 °C.
In turn, `O=c1cc(-c2ccncc2)cc[nH]1` yielded a melting point of 263 to 265 °C.
Then `CSc1nc(=O)[nH]c(C)c1Cl`, with 268 °C.
Consider `O=C1C(=Cn2ccnc2)c2ccccc2N1c1cccc(Cl)c1`, for which the melting point lay within 164 to 166 °C.
The compound `CN1CCC(NC(c2cccc(O)c2)c2nc3ccccc3[nH]2)CC1` (centres undefined) showed a melting point of 230 °C.
With `CC(C)C1=C(Sc2ccccc2)C(c2ccc(F)cc2)=C(C(C)O)C(C(C)C)N1C` (centres undefined), the melting point lay within 125 to 128 °C.
`CC(C)(C)NC(=O)c1ncccc1CC(=O)C1CCC(C(=O)O)CC1` (centres undefined) registered a melting point of 160 °C.
With `COC(=O)C(C(=O)c1ccc(Cc2cn(C)c3ccc(NC(=O)OC4CCCC4)cc23)c(OC)c1)S(=O)(=O)c1ccccc1` (centres undefined) the figure was 65 to 70 °C.
In turn, `COc1ccc(Sc2ccccc2CCl)cc1` gave a melting point of 76 to 78 °C.
Consider `CCCNC(=O)N1c2ccc(S(=O)(=O)n3cc(-c4ccccc4)[nH]c3=O)cc2CC1C` (centres undefined), for which the melting point came to 138 °C.
`CCOC(=O)c1ccc(CCC(=O)O)[nH]1` registered a melting point of 126 to 128 °C.
Turning to `O=C(Nc1ccccc1F)c1ccccn1`, the melting point was in the range of 112 to 115 °C.
`CC1(c2ccc(Cl)cc2)Cc2cc(O)c(Cl)c(Cl)c2C1=O` (centres undefined) displayed a melting point of 211 to 213 °C.
On to `CN(c1cccc2cc(C3=NCC4(CCN(S(C)(=O)=O)CC4)S3)[nH]c12)S(=O)(=O)c1cccs1`, for which the melting point is 251 °C.
With `CCOC(=O)COc1ccc(C(=O)Nc2ccccc2Oc2cccc(-c3nnn[nH]3)c2)cc1`, the melting point fell in the range of 165 to 166 °C.
Compound `CCCCCCCCCCCCCCCCSCC1(CS(=O)(=O)CCCI)CCCO1` (centres undefined) returned a melting point of 36 to 37 °C.
For `CCCCN1CC(=O)N2[C@@H](c3ccc(NC(C)=O)cc3)c3[nH]c4ccccc4c3C[C@@H]2C1=O` (relative stereo), the melting point came out at 246 °C.
In turn, `CCOC(=O)C1(CC(N)=O)C(=O)N(Cc2ccc(Br)cc2F)C(=O)c2cccn21` (centres undefined) had a melting point of 190 to 192 °C.
With `NC(=NCC(F)(F)F)Nc1ccnc(OCCn2ccnc2)n1` the figure was 149 to 150 °C.
Consider `O=C(O)CCCCCCCCCCC(=O)c1ccccc1`, for which the melting point fell in the range of 83 to 86 °C.
Then `Cc1cccc(NC(=O)NCC2(c3ccccc3)CCCCC2)c1`, with 145 to 147 °C; and `CC(C)c1ccc(S(=O)(=O)n2c(CCCC(=O)O)cc3cc(Cl)ccc32)cc1`, with 148 °C.
In turn, `CCC1(c2cccc(OCc3ccccc3)c2)COC(C)(C)O1` (centres undefined) had a melting point of 51 to 53 °C.
Turning to `OCCC1(CCO)c2ccccc2Sc2ccccc21`, the melting point is 132 to 135 °C.
With `Cc1ccc(N(Cc2cccnc2)S(C)(=O)=O)c(C)c1` the figure was 62 to 65 °C; with `CC(C)Oc1cc(N2NC(C)(C)NC2=O)c(Cl)cc1Cl`, 162 to 163 °C; with `c1ccc(CC[C@H]2CN(C3=Nc4ccccc4Sc4ccccc43)CCN2)cc1`, 48 to 59 °C.
Compound `O=C(O)CCC(=O)c1ccc2[nH]c3nc(Cl)ccc3c2c1` returned a melting point of 281 °C.
`COc1cc2ncnc(N3CCc4cc([N+](=O)[O-])c(Cl)cc43)c2cc1OC` came in with a melting point of 276 to 278 °C.
`Clc1ccc2c(c1)C(c1ccco1)=NCC1CSCCN21` (centres undefined) yielded a melting point of 138 to 140 °C.
Consider `NC(=O)[C@@H]1[C@H](Nc2c(Cl)cnc3[nH]c(-c4cnn(C5CCNCC5)c4)nc23)[C@H]2C=C[C@@H]1C2`, for which the melting point fell in the range of 203 to 205 °C.
Consider `C=CCNC(=S)Nc1cc(=N)n2c(n1)SCCC2`, for which the melting point is 196 to 197 °C.
The compound `CC(=O)Nc1ccc(NCCOS(C)(=O)=O)c([N+](=O)[O-])c1` yielded a melting point of 166 °C.
With `COC(=O)C(OC)c1nsc2ccc(-n3c(=O)cc(C(F)(F)F)n(C)c3=O)cc12` (centres undefined) the figure was 166 to 168 °C; with `COc1cccc(SC2CC(=O)N2)c1` (centres undefined), 55 to 56 °C; with `Clc1cc(N2CCN(CCOc3ccc(Br)cc3)CC2)c(Cl)nn1`, 124 to 126 °C.
Regarding `CCN(C(=O)COC(C)=O)C1=CC(C)(C)CC(C)=C1`, the melting point lay in the range of 38 to 40 °C.
In turn, `CCNC(=O)c1cc(N)ccc1[Si](C)(C)C` returned a melting point of 143 to 145 °C.
`O=C(c1ccc(Cl)cc1)c1ccc2[nH]c(=O)nc(-c3cccc(Cl)c3)c2c1`: the melting point came to 256 °C.
As to `CC(C)N1CCC(Nc2cccnc2)CC1`, the melting point came out at 101 °C.
In turn, `O=C(c1ccc(F)cc1)c1cccc(C#Cc2ccc(F)cc2)c1` returned a melting point of 127 to 128 °C.
Compound `CN(C)C1(c2cccc(O)c2)CCC(=O)CC1` gave a melting point of 175 to 177 °C.
Then `COc1cccc(-c2oc3ccccc3c(=O)c2OCCCCCCN2CCC(O)CC2)c1`, with 119 to 120 °C.
`CCc1cc(-c2[nH]c3ccccc3c2C)cc(CC)c1O` yielded a melting point of 112 °C.
With `Cc1c(Cc2ccccc2)c(=O)n(Cc2ccccc2)c2cc(OCC(=O)NO)cc(OCC(=O)NO)c12`, the melting point fell in the range of 121 to 127 °C.
Take `N#Cc1cc2c(cc1F)OCC21C(=O)N(Cc2ccccn2)c2ccccc21` (centres undefined): the melting point fell in the range of 108 to 109 °C.
`O=C(COC(=O)C(O)Cc1ccccc1)Oc1ccccc1` (centres undefined) came in with a melting point of 98 to 99 °C.
With `CC(=O)Nc1nc(-c2ccc(CCC(=O)O)cc2)c(Cc2ccc(S(C)(=O)=O)cc2)s1` the figure was 208 to 210 °C; with `OC(CCl)(Cc1ccc(Cl)cc1Cl)c1ccc(-c2ccccc2)cc1` (centres undefined), 84 °C; with `O=C(Nc1cccc(C(F)(F)F)c1)c1cccc2cc(Oc3cc(CO)ncn3)ccc12`, 183 to 184 °C.
Turning to `Cc1ccc(C2c3c(C)c(N4CCN(c5ccc(C#N)cc5)CC4)c(C)c(C)c3OC2(C)C)cc1` (centres undefined), the melting point fell in the range of 216 to 217 °C.
Turning to `O=C(O)c1cn2c(n1)COc1ccc([N+](=O)[O-])cc1-2`, the melting point lay within 310 to 312 °C.
Then `C[C@@H](CN1CCc2ccc3c(c21)OCCO3)NC(=O)OC(C)(C)C`, with 130 to 132 °C; and `CN(C)Cc1cc(NC(=O)OC(C)(C)C)c(N)cc1-c1ccc(F)cc1`, with 97 to 125 °C.
`Cc1ccccc1-c1nc2c3ccccc3ccn2c1N=Cc1ccc2ccccc2c1Br` came in with a melting point of 250 to 252 °C.
`Cc1sc2c(c1CCN1CCC(c3noc4cc(F)ccc34)CC1)CCN(C(=O)c1ccccc1)C2` registered a melting point of 192 to 195 °C.
On to `Cc1cc(C(C)(C)C)cc2c1OCC(/C=C/C=C/C=C/C(=O)O)=C2`, for which the melting point lay within 225 to 227 °C.
In the case of `OCCCNCc1cc(C(F)(F)F)cc(C(F)(F)F)c1`, the melting point is 57 to 58 °C.
Consider `COc1cc(=O)n(-c2cccc(C(F)(F)F)c2)nc1C(C)=O`, for which the melting point lay within 136 to 138 °C.
For `c1cnn2cnnc2c1`, the melting point is 140 to 141 °C.
Then `Cn1c(Cl)c(Cl)c2cnc(NC(=O)c3ccc([C@](C)(O)CO)cc3)cc21`, with 205 to 208 °C.
Compound `CC(=O)N1CCN(c2nc(N)ccc2[N+](=O)[O-])CC1` showed a melting point of 202 to 203 °C.
The compound `O=C1CCC2=C(CCc3cc(F)ccc32)N1Cc1ccccc1` had a melting point of 101 to 102 °C.
Consider `O=C(Nc1ccc(Cl)c(Cl)c1)OCCCC(O)c1ccccc1` (centres undefined), for which the melting point was 86 to 89 °C.
Turning to `O=C(O)c1cccnc1Cc1ccccc1`, the melting point was in the range of 180 to 182 °C.
Take `COc1cc2ncnc(N3CCC(C(C)CN4C(C)=CC(C)=NS4(=O)=O)CC3)c2cc1OC` (centres undefined): the melting point lay within 169 to 172 °C.
